# How the values were obtained:
# Mus musculus [1] = experiment: Anticonvulsant activity in albino Mus musculus (mouse) assessed as protection against maximal electric shock-induced seizures at 100 mg/kg, ip administered 30 min prior to maximal electric shock-challenge measured up to 4 hr relative to control; format: functional; conditions: route intraperitoneal
# Mus musculus [2] = experiment: Neurotoxicity in albino Mus musculus (mouse) assessed as motor impairment at 100 mg/kg, po measured at 2 hr by rotarod test; format: toxicity, organism-based; design: dose 100 mg/kg, route oral; conditions: in vivo
# Mus musculus [3] = experiment: Neurotoxicity in albino Mus musculus (mouse) assessed as motor impairment at 100 mg/kg, po measured at 4 hr by rotarod test; format: toxicity, organism-based; design: dose 100 mg/kg, route oral; conditions: in vivo
SMILES,Activity (Mus musculus [1]) [%],Activity (Mus musculus [2]),Activity (Mus musculus [3])
O=C(NC1CCC2(CC1)NC(=O)N(CCOc1ccc(F)cc1)C2=O)c1ccc(F)cc1 (stereo not given),57.94,Toxic,Toxic
Cc1ccc(S(=O)(=O)NC2CCC3(CC2)NC(=O)N(CCOc2ccc(F)cc2)C3=O)cc1 (stereo not given),1.14,Non-toxic,Non-toxic
O=C1NC2(CCC(NS(=O)(=O)c3cccc(Cl)c3)CC2)C(=O)N1CCOc1ccc(F)cc1 (stereo not given),4.55,Toxic,Toxic
O=C(NC1CCC2(CC1)NC(=O)N(CCOc1ccc(F)cc1)C2=O)OCc1ccccc1Cl (stereo not given),48.82,Non-toxic,Non-toxic
O=C(NC1CCC2(CC1)NC(=O)N(CCOc1ccc(F)cc1)C2=O)c1cccc(F)c1 (stereo not given),58.02,Toxic,Toxic
O=C(NC1CCC2(CC1)NC(=O)N(CCOc1ccc(F)cc1)C2=O)c1ccccc1C(F)(F)F (stereo not given),79.32,Non-toxic,Non-toxic
COc1ccc(S(=O)(=O)NC2CCC3(CC2)NC(=O)N(CCOc2ccc(F)cc2)C3=O)cc1 (stereo not given),9.23,Non-toxic,Non-toxic
O=C(NC1CCC2(CC1)NC(=O)N(CCOc1ccc(F)cc1)C2=O)c1cccc(Cl)c1 (stereo not given),58.61,Toxic,Toxic
Cc1ccc(S(=O)(=O)NC2CCC3(CC2)NC(=O)N(CCOc2ccc(F)cc2)C3=O)cc1C (stereo not given),42.61,Non-toxic,Non-toxic
O=C(NC1CCC2(CC1)NC(=O)N(CCOc1ccc(F)cc1)C2=O)c1ccccc1 (stereo not given),55.78,Non-toxic,Non-toxic
Cc1ccc(C)c(S(=O)(=O)NC2CCC3(CC2)NC(=O)N(CCOc2ccc(F)cc2)C3=O)c1 (stereo not given),43.95,Non-toxic,Non-toxic
O=C1NC2(CCC(NS(=O)(=O)c3cccc(F)c3)CC2)C(=O)N1CCOc1ccc(F)cc1 (stereo not given),6.5,Non-toxic,Non-toxic
Cc1cccc(C(=O)NC2CCC3(CC2)NC(=O)N(CCOc2ccc(F)cc2)C3=O)c1 (stereo not given),78.62,Non-toxic,Non-toxic
Cc1cc(F)ccc1S(=O)(=O)NC1CCC2(CC1)NC(=O)N(CCOc1ccc(F)cc1)C2=O (stereo not given),3.25,Non-toxic,Non-toxic
O=C(NC1CCC2(CC1)NC(=O)N(CCOc1ccc(F)cc1)C2=O)c1ccc(Cl)cc1 (stereo not given),49.83,Toxic,Toxic
O=C(NC1CCC2(CC1)NC(=O)N(CCOc1ccc(F)cc1)C2=O)c1ccccc1Cl (stereo not given),49.41,Non-toxic,Non-toxic
O=C(NC1CCC2(CC1)NC(=O)N(CCOc1ccc(F)cc1)C2=O)Oc1ccc(Cl)cc1 (stereo not given),59.29,Non-toxic,Non-toxic
O=C(Cc1ccccc1)NC1CCC2(CC1)NC(=O)N(CCOc1ccc(F)cc1)C2=O (stereo not given),47.21,Non-toxic,Non-toxic
Cc1ccc(C(=O)NC2CCC3(CC2)NC(=O)N(CCOc2ccc(F)cc2)C3=O)cc1 (stereo not given),79.58,Non-toxic,Non-toxic
O=C1NC2(CCC(NS(=O)(=O)c3cccc(Br)c3)CC2)C(=O)N1CCOc1ccc(F)cc1 (stereo not given),7.41,Non-toxic,Non-toxic
O=C(NC1CCC2(CC1)NC(=O)N(CCOc1ccc(F)cc1)C2=O)c1ccccc1F (stereo not given),48.12,Toxic,Toxic
N#Cc1ccccc1S(=O)(=O)NC1CCC2(CC1)NC(=O)N(CCOc1ccc(F)cc1)C2=O (stereo not given),4.51,Non-toxic,Non-toxic
O=C(NC1CCC2(CC1)NC(=O)N(CCOc1ccc(F)cc1)C2=O)Oc1ccccc1 (stereo not given),56.89,Non-toxic,Non-toxic
CC(C)(C)c1ccc(C(=O)NC2CCC3(CC2)NC(=O)N(CCOc2ccc(F)cc2)C3=O)cc1 (stereo not given),48.15,Non-toxic,Non-toxic
Cc1cc(C)cc(S(=O)(=O)NC2CCC3(CC2)NC(=O)N(CCOc2ccc(F)cc2)C3=O)c1 (stereo not given),43.12,Non-toxic,Non-toxic
CCc1ccc(S(=O)(=O)NC2CCC3(CC2)NC(=O)N(CCOc2ccc(F)cc2)C3=O)cc1 (stereo not given),1.23,Non-toxic,Non-toxic
O=C1NC2(CCC(NS(=O)(=O)c3ccccc3F)CC2)C(=O)N1CCOc1ccc(F)cc1 (stereo not given),4.94,Non-toxic,Non-toxic
Cc1ccccc1S(=O)(=O)NC1CCC2(CC1)NC(=O)N(CCOc1ccc(F)cc1)C2=O (stereo not given),13,Non-toxic,Non-toxic
Cc1cccc(S(=O)(=O)NC2CCC3(CC2)NC(=O)N(CCOc2ccc(F)cc2)C3=O)c1 (stereo not given),4.55,Non-toxic,Non-toxic
Cc1ccc(CS(=O)(=O)NC2CCC3(CC2)NC(=O)N(CCOc2ccc(F)cc2)C3=O)cc1 (stereo not given),12.6,Toxic,Toxic

# — ChEMBL document CHEMBL3045150, “Synthesis and structureactivity relationship studies on novel 8-amino-3-[2-(4-fluorophenoxy)ethyl]-1,3-diazaspiro[4.5]decane-2,4-dione derivatives as anticonvulsant agents” (Med Chem Res, 2013)
